{"source": "patent US12661348B2", "about": "“Systemic formulation of a pyridinone derivate for TG2-related diseases” (Dr. Falk Pharma GmbH, priority 2020, dated 2026)", "key": {"[1]": {"tested_on": "adult patients with Celiac Disease (CeD)", "assay": "6-week treatment of Celiac Disease patients under gluten challenge: ALT, AST, ALP levels", "format": "in vivo, human", "conditions": "for ALP, Change from baseline / ALT, Change from baseline / AST, Change from baseline / ALP, Difference versus placebo / ALT, Difference versus placebo / AST, Difference versus placebo: baseline to week 6; for Mean alanine aminotransferase (ALT) level, Baseline / Mean alkaline phosphatase (ALP) level, Baseline / Mean aspartate aminotransferase (AST) level, Baseline / Mean ALP level, Week 6 / Mean ALT level, Week 6 / Mean AST level, Week 6: safety population", "method": "(§1) The efficacy and safety of a 6-week treatment with the compound of formula (I) in the hard gelatine capsule formulation described in example 2 was investigated in 160 adult patients with Celiac Disease (CeD). Patients, who were in clinical and histological remission at start of the study were challenged with 3 grams daily gluten intake and randomized to receive placebo or one of 3 doses of the compound of formula (I), i.e. 10 mg, 50 mg or 100 mg. Each morning after at least 6 hours of fasting, patients took the study drug orally, followed by one biscuit containing 3 g of gluten 30 minutes later, before breakfast. Throughout the 6-week study, patients were required to continue their strict gluten free diet.\nas §1, with “described in the example 2” for “described in example 2”, “gluten free diet (see FIG. 12).” for “gluten free diet.”"}, "[2]": {"tested_on": "UUO-model in the C57BL/6-mouse", "assay": "Unilateral ureteral obstruction model (UUO-model) for nephritic fibrosis", "format": "in vivo", "conditions": "100, 300, 1000 mg/kg body weight daily, oral suspension, two weeks", "source_text": "The anti-fibrotic effect of (S,E)-methyl-7-(1-(2-(2-ethylbutylamino)-2-oxoethyl)-2-oxo-1,2-dihydro-pyridin-3-ylamino)-6-(1-methyl-1H-imidazole-5-carboxamido)-7-oxohept-2-enoate (compound of formula (I)) in the kidney was investigated in an UUO-model in the C57BL/6-mouse. In a UUO-model, in one of the kidneys fibrosis is induced by ligation of one ureter. The other kidney remains functional. The pathophysiology of the UUO-model resembles the chronic nephropathy in humane (Chronic Kidney Disease, CKD).\nGroups of 8 UUO-mice were treated directly after ligation of the ureter over a time period of two weeks with three different dosages of said compound: 100 mg/kg body weight, 300 mg/kg body weight, and 1000 mg/kg body weight. The daily dosage was administered orally as a suspension at intervals of 8 hours. In a control group, the UUO-mice were treated in same way but merely with the vehicle methyl cellulose. After the end of the treatment, the histopathological investigation of the kidney tissue as well as the determination of the amount of hydroxyproline in the kidney was performed. […]"}, "[3]": {"assay": "Saturation solubility, pH-range 1 to 6.8, HPLC/UV", "format": "physicochemical", "conditions": "pH=6.8 (small intestine) compared with pH~1"}, "[4]": {"assay": "Pharmacokinetic in the C57BL/6-mouse", "format": "in vivo", "conditions": "oral suspension", "method": "The study serves to describe the pharmacokinetics of compound of formula (I) in the C57BL/6-mouse. The dosage was analogous to the dosage in the STAM-model (example 3) or in the UUO-model (example 2) in order to ensure the estimation of the systemic exposition in these models and to correlate the pharmacokinetic data with the efficacy data.\nGroups of 12 C57BL/6-mice were treated with three different dosages of compound of formula (I) over a time period of 7 days: 100 mg/kg body weight, 300 mg/kg body weight, and 1000 mg/kg body weight. The daily dosage was administered orally as a suspension in two parts at intervals of 8 hours. On day 7 of treatment three different blood samples per animal were collected. The time points in the group were distributed in such a way that the 24 h-profile was covered with in total 12 different time points (3 animals per time point).\nThe determination of compound of formula (I) in the blood plasma was performed by means of a previously validated HLPC-MS/MS method."}, "STAM-model and UUO-model": {"tested_on": "STAM-model and UUO-model", "assay": "Dose-activity-relationship in STAM-model and UUO-model", "format": "in vivo, C57BL/6-mouse", "source_text": "The reduction of the fibrotic area in the tissue in comparison to the untreated control animals can be considered as a measure for the anti-fibrotic effect of compound of formula (I) in STAM-model as well as in the UUO-model. For the STAM- and UUO-model the anti-fibrotic effect in dependence of the dose or in dependence of the exposure (Plasma Cmax or Plasma-AUC) are depicted in FIG. 5."}}}
{"compound": "CCC(CC)CNC(=O)Cn1cccc(NC(=O)[C@H](CC/C=C/C(=O)OC)NC(=O)c2cncn2C)c1=O", "note": "[compound of formula (I), (S,E)-methyl-7-(1-(2-(2-ethylbutylamino)-2-oxoethyl)-2-oxo-1,2-dihydro-pyridin-3-ylamino)-6-(1-methyl-1H-imidazole-5-carboxamido)-7-oxohept-2-enoate]", "values": [{"measurement": "ALP, Change from baseline", "setting": "[1]; 10 mg (N = 41)", "result": "−1.0", "unit": "U/L"}, {"measurement": "ALT, Change from baseline", "setting": "[1]; 10 mg (N = 41)", "result": "−0.5", "unit": "U/L"}, {"measurement": "AST, Change from baseline", "setting": "[1]; 10 mg (N = 41)", "result": 0, "unit": "U/L"}, {"measurement": "Mean alanine aminotransferase (ALT) level, Baseline", "setting": "[1]; 10 mg (N = 41)", "result": 20.5, "unit": "U/L"}, {"measurement": "Mean alkaline phosphatase (ALP) level, Baseline", "setting": "[1]; 10 mg (N = 41)", "result": 60.0, "unit": "U/L"}, {"measurement": "Mean aspartate aminotransferase (AST) level, Baseline", "setting": "[1]; 10 mg (N = 41)", "result": 22.5, "unit": "U/L"}, {"measurement": "Mean ALP level, Week 6", "setting": "[1]; 10 mg (N = 41)", "result": 59.3, "unit": "U/L"}, {"measurement": "Mean ALT level, Week 6", "setting": "[1]; 10 mg (N = 41)", "result": 20.0, "unit": "U/L"}, {"measurement": "Mean AST level, Week 6", "setting": "[1]; 10 mg (N = 41)", "result": 22.5, "unit": "U/L"}, {"measurement": "Mean ALT level, Week 10 (Follow-up)", "setting": "[1]; 10 mg (N = 41)", "result": 19.7, "unit": "U/L"}, {"measurement": "Mean AST level, Week 10 (Follow-up)", "setting": "[1]; 10 mg (N = 41)", "result": 20.6, "unit": "U/L"}, {"measurement": "ALP, Difference versus placebo", "setting": "[1]; 10 mg versus placebo", "result": "−2.6", "unit": "U/L"}, {"measurement": "ALT, Difference versus placebo", "setting": "[1]; 10 mg versus placebo, P value 0.0019", "result": "−4.4", "unit": "U/L"}, {"measurement": "AST, Difference versus placebo", "setting": "[1]; 10 mg versus placebo, P value 0.0448", "result": "−3.2", "unit": "U/L"}, {"measurement": "ALP, Change from baseline", "setting": "[1]; 50 mg (N = 41)", "result": "−0.5", "unit": "U/L"}, {"measurement": "ALT, Change from baseline", "setting": "[1]; 50 mg (N = 41)", "result": 0.8, "unit": "U/L"}, {"measurement": "AST, Change from baseline", "setting": "[1]; 50 mg (N = 41)", "result": 1.0, "unit": "U/L"}, {"measurement": "Mean alanine aminotransferase (ALT) level, Baseline", "setting": "[1]; 50 mg (N = 41)", "result": 21.4, "unit": "U/L"}, {"measurement": "Mean alkaline phosphatase (ALP) level, Baseline", "setting": "[1]; 50 mg (N = 41)", "result": 57.8, "unit": "U/L"}, {"measurement": "Mean aspartate aminotransferase (AST) level, Baseline", "setting": "[1]; 50 mg (N = 41)", "result": 22.6, "unit": "U/L"}, {"measurement": "Mean ALP level, Week 6", "setting": "[1]; 50 mg (N = 41)", "result": 57.3, "unit": "U/L"}, {"measurement": "Mean ALT level, Week 6", "setting": "[1]; 50 mg (N = 41)", "result": 22.2, "unit": "U/L"}, {"measurement": "Mean AST level, Week 6", "setting": "[1]; 50 mg (N = 41)", "result": 23.6, "unit": "U/L"}, {"measurement": "Mean ALT level, Week 10 (Follow-up)", "setting": "[1]; 50 mg (N = 41)", "result": 21.7, "unit": "U/L"}, {"measurement": "Mean AST level, Week 10 (Follow-up)", "setting": "[1]; 50 mg (N = 41)", "result": 21.9, "unit": "U/L"}, {"measurement": "ALP, Difference versus placebo", "setting": "[1]; 50 mg versus placebo", "result": "−2.8", "unit": "U/L"}, {"measurement": "ALT, Difference versus placebo", "setting": "[1]; 50 mg versus placebo, P value 0.0069", "result": "−3.8", "unit": "U/L"}, {"measurement": "AST, Difference versus placebo", "setting": "[1]; 50 mg versus placebo, P value 0.1423", "result": "−2.2", "unit": "U/L"}, {"measurement": "ALP, Change from baseline", "setting": "[1]; 100 mg (N = 40)", "result": "−0.5", "unit": "U/L"}, {"measurement": "ALT, Change from baseline", "setting": "[1]; 100 mg (N = 40)", "result": "−2.6", "unit": "U/L"}, {"measurement": "AST, Change from baseline", "setting": "[1]; 100 mg (N = 40)", "result": "−0.4", "unit": "U/L"}, {"measurement": "Mean alanine aminotransferase (ALT) level, Baseline", "setting": "[1]; 100 mg (N = 40)", "result": 26.3, "unit": "U/L"}, {"measurement": "Mean alkaline phosphatase (ALP) level, Baseline", "setting": "[1]; 100 mg (N = 40)", "result": 62.7, "unit": "U/L"}, {"measurement": "Mean aspartate aminotransferase (AST) level, Baseline", "setting": "[1]; 100 mg (N = 40)", "result": 26.8, "unit": "U/L"}, {"measurement": "Mean ALP level, Week 6", "setting": "[1]; 100 mg (N = 40)", "result": 62.3, "unit": "U/L"}, {"measurement": "Mean ALT level, Week 6", "setting": "[1]; 100 mg (N = 40)", "result": 23.7, "unit": "U/L"}, {"measurement": "Mean AST level, Week 6", "setting": "[1]; 100 mg (N = 40)", "result": 26.5, "unit": "U/L"}, {"measurement": "Mean ALT level, Week 10 (Follow-up)", "setting": "[1]; 100 mg (N = 40)", "result": 23.9, "unit": "U/L"}, {"measurement": "Mean AST level, Week 10 (Follow-up)", "setting": "[1]; 100 mg (N = 40)", "result": 24.3, "unit": "U/L"}, {"measurement": "ALP, Difference versus placebo", "setting": "[1]; 100 mg versus placebo", "result": "−2.8", "unit": "U/L"}, {"measurement": "ALT, Difference versus placebo", "setting": "[1]; 100 mg versus placebo, P value 0.0022", "result": "−4.3", "unit": "U/L"}, {"measurement": "AST, Difference versus placebo", "setting": "[1]; 100 mg versus placebo, P value 0.8551", "result": 0.3, "unit": "U/L"}, {"measurement": "elevation of alanine aminotransferase (ALT) from baseline to week 6", "setting": "[1]; 10, 50, 100 mg groups, gluten challenge, elevation seen in placebo group", "result": "not observed"}, {"measurement": "difference between each drug group and placebo in ALT", "setting": "[1]; P<0.01 for all comparisons", "result": "statistically significant"}, {"measurement": "levels of AST, ALT, total protein", "setting": "[1]; oral, doses of 10, 50 and 100 mg in human", "result": "significantly reduced"}, {"measurement": "hydroxyproline content in the kidney", "setting": "[2]", "result": "remained unaffected"}, {"measurement": "fibrotic area of the kidney", "setting": "[2]; versus vehicle control", "result": "significant, marked, dosage dependent reduction"}, {"measurement": "saturation solubility", "setting": "[3]", "result": "much lower"}, {"measurement": "bioavailability in the mouse model", "setting": "[4]", "result": "measurable"}, {"measurement": "anti-fibrotic effect in dependence of the exposure in plasma", "setting": "STAM-model and UUO-model; Plasma Cmax or Plasma-AUC", "result": "almost linear correlation"}, {"measurement": "anti-fibrotic effect in STAM-model versus UUO-model", "setting": "STAM-model and UUO-model; reduction of the fibrotic area versus control, liver and kidney", "result": "the same anti-fibrotic effect"}]}
